Measured values published in patent publication US20260138961A1, “MODULATORS OF MITOCHONDRIAL DNA REPLICATION” (Pretzel Therapeutics, Inc., priority 2022, published 2026).

What follows are compounds tested against T1, POLγA:A467T (Homo sapiens, UniProt P54098, A467T) (assay: DNA polymerization assay, POLγA:A467T mutant). Conditions: stimulation of polymerase activity, primed M13mp18 ssDNA, 37° C. 2 hours; read-out: A467T AC50.
T1 sequence (P54098 1-1239 A467T): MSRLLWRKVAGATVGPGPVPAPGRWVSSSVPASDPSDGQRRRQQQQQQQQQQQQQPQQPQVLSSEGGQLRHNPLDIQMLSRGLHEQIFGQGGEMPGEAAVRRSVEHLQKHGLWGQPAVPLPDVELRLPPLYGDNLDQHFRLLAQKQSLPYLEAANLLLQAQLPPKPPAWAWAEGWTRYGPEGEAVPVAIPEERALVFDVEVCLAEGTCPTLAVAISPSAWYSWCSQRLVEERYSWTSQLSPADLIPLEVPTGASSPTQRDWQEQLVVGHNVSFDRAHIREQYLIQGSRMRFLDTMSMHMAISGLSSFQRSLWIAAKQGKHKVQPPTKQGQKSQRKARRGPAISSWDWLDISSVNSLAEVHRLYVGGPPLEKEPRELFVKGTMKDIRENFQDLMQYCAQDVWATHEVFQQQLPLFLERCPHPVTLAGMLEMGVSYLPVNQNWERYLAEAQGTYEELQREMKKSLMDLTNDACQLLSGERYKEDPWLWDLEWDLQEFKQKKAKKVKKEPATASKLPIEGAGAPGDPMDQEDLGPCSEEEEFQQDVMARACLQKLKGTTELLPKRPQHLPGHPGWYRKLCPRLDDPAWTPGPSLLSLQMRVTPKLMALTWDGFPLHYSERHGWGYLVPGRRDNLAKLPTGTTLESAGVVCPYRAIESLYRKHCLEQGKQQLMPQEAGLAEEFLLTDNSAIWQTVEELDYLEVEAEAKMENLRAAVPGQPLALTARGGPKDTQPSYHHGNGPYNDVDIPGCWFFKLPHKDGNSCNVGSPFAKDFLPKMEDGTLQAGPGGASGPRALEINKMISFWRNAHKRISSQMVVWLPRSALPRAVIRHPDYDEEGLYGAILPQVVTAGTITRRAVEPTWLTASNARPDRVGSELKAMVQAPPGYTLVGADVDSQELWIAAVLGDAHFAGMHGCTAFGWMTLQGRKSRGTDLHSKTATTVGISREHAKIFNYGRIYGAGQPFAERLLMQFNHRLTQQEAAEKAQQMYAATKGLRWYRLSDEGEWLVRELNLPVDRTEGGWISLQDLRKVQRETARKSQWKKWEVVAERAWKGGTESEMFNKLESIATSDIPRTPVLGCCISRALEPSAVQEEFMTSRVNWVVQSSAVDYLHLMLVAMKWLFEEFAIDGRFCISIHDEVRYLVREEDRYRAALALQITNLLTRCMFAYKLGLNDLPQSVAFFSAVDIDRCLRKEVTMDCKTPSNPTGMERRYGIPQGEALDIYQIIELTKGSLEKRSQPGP
T1 sequence (Q9UHN1 1-485 partner): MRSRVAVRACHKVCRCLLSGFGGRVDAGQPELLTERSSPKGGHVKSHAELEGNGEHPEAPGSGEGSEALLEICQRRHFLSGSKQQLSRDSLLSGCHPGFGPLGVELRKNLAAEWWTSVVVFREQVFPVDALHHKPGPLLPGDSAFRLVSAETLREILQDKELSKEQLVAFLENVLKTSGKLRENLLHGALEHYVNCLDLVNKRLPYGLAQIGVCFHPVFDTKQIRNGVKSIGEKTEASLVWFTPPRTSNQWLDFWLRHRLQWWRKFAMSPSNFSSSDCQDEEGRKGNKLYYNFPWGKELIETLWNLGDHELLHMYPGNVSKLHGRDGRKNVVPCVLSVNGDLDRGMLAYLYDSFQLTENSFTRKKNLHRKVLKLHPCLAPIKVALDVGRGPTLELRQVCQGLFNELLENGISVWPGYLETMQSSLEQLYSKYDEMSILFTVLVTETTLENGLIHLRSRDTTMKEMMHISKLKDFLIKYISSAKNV
Format: biochemical
`Cc1cc(S(=O)(=O)Nc2cccc(C(=O)N3CCN(C)CC3)c2)c(C)cc1Cl` [Example 52, 4-chloro-2,5-dimethyl-N-(3-(4-methylpiperazine-1-carbonyl)phenyl)benzenesulfonamide] showed an AC50 greater than 100 µM. With `Cc1cc(S(=O)(=O)Nc2cccc(C(=O)NCCO)c2)c(C)cc1Cl` [Example 53, 3-((4-chloro-2,5-dimethylphenyl)sulfonamido)-N-(2-hydroxyethyl)benzamide] the AC50 was greater than 100 µM. Work on `Cc1cc(S(=O)(=O)Nc2cccc(C(=O)N3CCN(C)C[C@H]3C)c2)c(C)cc1Cl` [Example 54, (R)-4-chloro-N-(3-(2,4-dimethylpiperazine-1-carbonyl)phenyl)-2,5-dimethylbenzenesulfonamide] yielded an AC50 greater than 100 µM. In the case of `Cc1cc(S(=O)(=O)Nc2cccc(C(=O)N3CCN(CCO)CC3)c2)c(C)cc1Cl` [Example 55, 4-chloro-N-(3-(4-(2-hydroxyethyl)piperazine-1-carbonyl)phenyl)-2,5-dimethylbenzenesulfonamide], the AC50 is reported as greater than 100 µM. Compound `Cc1cc(S(=O)(=O)Nc2cccc(C(=O)N(C)CCO)c2)c(C)cc1Cl` [Example 56, 3-((4-chloro-2,5-dimethylphenyl)sulfonamido)-N-(2-hydoxyethyl)-N-methylbenzamide] has an AC50 greater than 100 µM. With `Cc1cc(S(=O)(=O)Nc2cccc(C(=O)N3CCC[C@H]3C)c2F)c(C)cc1Cl` [Example 57, (R)-4-chloro-N-(2-fluoro-3-(2-methylpyrrolidine-1-carbonyl)phenyl)-2,5-dimethylbenzenesulfonamide] the AC50 was greater than 100 µM. Compound `COCCN(C)C(=O)c1cccc(NS(=O)(=O)c2cc(C)c(Cl)cc2C)c1` [Example 58, 3-((4-chloro-2,5-dimethylphenyl)sulfonamido)-N-(2-methoxyethyl)-N-methylbenzamide] has an AC50 greater than 100 µM. `O=S(=O)(Nc1cccc(-c2nccs2)c1)c1ccc(Cl)cc1` [Example 59, 4-chloro-N-(3-(thiazol-2-yl)phenyl)benzenesulfonamide] showed an AC50 greater than 100 µM. In the case of `Cc1ccc(C)c(S(=O)(=O)Nc2cccc(-c3nccs3)c2)c1` [Example 60], the AC50 is reported as 5 µM. Compound `Cc1cc(S(=O)(=O)Nc2cc(-c3nccs3)ccc2F)c(C)cc1Cl` [Example 61, 4-chloro-N-(2-fluoro-5-(thiazol-2-yl)phenyl)-2,5-dimethylbenzenesulfonamide] has an AC50 greater than 100 µM. `Cc1cc(S(=O)(=O)Nc2cc(F)cc(-c3nccs3)c2)c(C)cc1Cl` [Example 62, 4-chloro-N-(3-fluoro-5-(thiazol-2-yl)phenyl)-2,5-dimethylbenzenesulfonamide] showed an AC50 greater than 100 µM. For `Cc1cc(S(=O)(=O)Nc2ccc(F)c(-c3nccs3)c2)c(C)cc1Cl` [Example 63, 4-chloro-N-(4-fluoro-3-(thiazol-2-yl)phenyl)-2,5-dimethylbenzenesulfonamide], the AC50 was greater than 100 µM. For `Cc1cc(S(=O)(=O)Nc2cccc(-c3cc(C4CC4)[nH]n3)c2)c(C)cc1Cl` [Example 64, 4-chloro-N-(3-(5-cyclopropyl-1H-pyrazol-3-yl)phenyl)-2,5-dimethylbenzenesulfonamide], the AC50 was 8 µM. For `CC[C@@H]1CCCN1C(=O)c1cccc(NS(=O)(=O)c2cc(C)c(Cl)cc2C)c1` [Example 65, (R)-4-chloro-N-(3-(2-ethylpyrrolidine-1-carbonyl)phenyl)-2,5-dimethylbenzenesulfonamide], the AC50 was 15 µM. For `Cc1cc(-c2cccc(NS(=O)(=O)c3cc(C)c(Cl)cc3C)c2)n[nH]1` [Example 66, 4-chloro-2,5-dimethyl-N-(3-(5-methyl-1H-pyrazol-3-yl)phenyl)benzenesulfonamide], the AC50 was 11 µM. In the case of `Cc1cc(S(=O)(=O)Nc2cccc(C(=O)N3CCC[C@H]3C(C)C)c2)c(C)cc1Cl` [Example 67, (S)-4-chloro-N-(3-(2-isopropylpyrrolidine-1-carbonyl)phenyl)-2,5-dimethylbenzenesulfonamide], the AC50 is reported as greater than 100 µM. Work on `Cc1cc(S(=O)(=O)Nc2cccc(-c3cc[nH]n3)c2)c(C)cc1Cl` [Example 68, N-(3-(1H-pyrazol-3-yl)phenyl)-4-chloro-2,5-dimethylbenzenesulfonamide] yielded an AC50 of 16 µM. In the case of `Cc1cc(S(=O)(=O)Nc2ccc3ccn(C(C)C)c3c2)c(C)cc1Cl` [Example 69, 4-chloro-N-(1-isopropyl-1H-indol-6-yl)-2,5-dimethylbenzenesulfonamide], the AC50 is reported as 17 µM. Compound `Cc1nc2ccc(NS(=O)(=O)c3cc(C)c(Cl)cc3C)cc2o1` [Example 70, 4-chloro-2,5-dimethyl-N-(2-methylbenzo[d]oxazol-6-yl)benzenesulfonamide] has an AC50 of 32 µM. `Cc1nc2cc(NS(=O)(=O)c3cc(C)c(Cl)cc3C)ccc2s1` [Example 71, 4-chloro-2,5-dimethyl-N-(2-methylbenzo[d]thiazol-5-yl)benzenesulfonamide] gave an AC50 greater than 100 µM. With `Cc1c(Cl)cccc1S(=O)(=O)Nc1csc(-c2ccccc2)n1` [Example 154, 3-chloro-2-methyl-N-(2-phenylthiazol-4-yl)benzenesulfonamide] the AC50 was greater than 100 µM. With `COc1ccccc1-c1nc(NS(=O)(=O)c2cc(C)c(Cl)cc2C)cs1` [Example 155, 4-chloro-N-(2-(2-methoxyphenyl)thiazol-4-yl)-2,5-dimethylbenzenesulfonamide] the AC50 was greater than 100 µM. `Cc1cc(S(=O)(=O)Nc2nc(-c3ccccc3)co2)c(C)cc1Cl` [Example 157, 4-chloro-2,5-dimethyl-N-(4-phenyloxazol-2-yl)benzenesulfonamide] was tested, and the AC50 was greater than 100 µM. Work on `Cc1cc(S(=O)(=O)N[C@H]2CCN(c3ccccc3)C2)c(C)cc1Cl` [Example 158, (S)-4-chloro-2,5-dimethyl-N-(1-phenylpyrrolidin-3-yl)benzenesulfonamide] yielded an AC50 greater than 100 µM. `Cc1cc(S(=O)(=O)Nc2nc(-c3ccccc3)cn2C)c(C)cc1Cl` [Example 159, 4-chloro-2,5-dimethyl-N-(1-methyl-4-phenyl-1H-imidazol-2-yl)benzenesulfonamide] gave an AC50 greater than 100 µM. `Cc1cc(S(=O)(=O)Nc2cccc(C(=O)N3CCC(F)(F)C3)c2)c(C)cc1Cl` [Example 160, 4-chloro-N-(3-(3,3-difluoropyrrolidine-1-carbonyl)phenyl)-2,5-dimethylbenzenesulfonamide] showed an AC50 greater than 100 µM. `Cc1cc(S(=O)(=O)N[C@H]2CCCN(c3ccccc3)C2)c(C)cc1Cl` [Example 161, (S)-4-chloro-2,5-dimethyl-N-(1-phenylpiperidin-3-yl)benzenesulfonamide] showed an AC50 greater than 100 µM. For `Cc1cc(S(=O)(=O)Nc2cccc(C(=O)N3CCCC34CC4)c2)c(C)cc1Cl` [Example 162, N-(3-(4-azaspiro[2.4]heptane-4-carbonyl)phenyl)-4-chloro-2,5-dimethylbenzenesulfonamide], the AC50 was 91 µM. With `CC(=O)N1CCC(c2nc(NS(=O)(=O)c3cc(C)c(Cl)cc3C)cs2)CC1` [Example 163, N-(2-(1-acetylpiperidin-4-yl)thiazol-4-yl)-4-chloro-2,5-dimethylbenzenesulfonamide] the AC50 was greater than 100 µM. Compound `COc1cccc(-c2nc(NS(=O)(=O)c3cc(C)c(Cl)cc3C)cs2)c1` [Example 165, 4-chloro-N-(2-(3-methoxyphenyl)thiazol-4-yl)-2,5-dimethylbenzenesulfonamide] has an AC50 of 1 µM. `Cc1cc(S(=O)(=O)Nc2csc(C(=O)N3CCCC3)n2)c(C)cc1Cl` [Example 166, 4-chloro-2,5-dimethyl-N-(2-(pyrrolidine-1-carbonyl)thiazol-4-yl)benzenesulfonamide] gave an AC50 of 2 µM.
